Laboratory results reported in paper PMC6052120, “Bioactive Phenolics of the Genus Artemisia (Asteraceae): HPLC-DAD-ESI-TQ-MS/MS Profile of the Siberian Species and Their Inhibitory Potential Against α-Amylase and α-Glucosidase” (Frontiers in Pharmacology, 2018).

Tests used:
[1] = target: T1, α-amylase from Aspergillus oryzae (Aspergillus oryzae, UniProt P0C1B3); assay type: biochemical; conditions: pure caffeoylquinic acids (CQA); acarbose reference; read-out: Inhibitory activity against enzyme as IC50 α-Amylase
T1 construct: purchased Sigma-Aldrich (St. Louis, MO, USA) 10065
Procedure: α-Amylase inhibitory activity was assayed according to a previously published spectrophotometric protocol (Olennikov and Kashchenko, [2014]). Sample solution in DMSO (10 μL) at varying concentrations (10, 100, 250, 500, and 1,000 μg/mL), 30 μL of phosphate buffer (pH 5.0) and 10 μL of α-amylase from Aspergillus oryzae (3 U/mL) were incubated for 20 min at . Then 10 μL of 2% starch solution, 40 μL of phosphate buffer (pH 5.0) and 100 μL of the reagent were added and incubated for 30 min at . The reagent was a solution of K2HPO4 (0.8 mM), KH2PO4 (0.4 mM), phenol (220 mM), 4-aminoantipyrine (1.5 μM), glucose oxidase from Aspergillus oryzae (3 U/mL), and peroxidase from horseradish (0.3 U/mL) in deionized water. Absorbance was measured at 510 nm. […] The ability to inhibit α-amylase was calculated using the following equation: […]
(§1) Values are expressed as mean obtained from five independent experiments.

[2] = target: T2, α-Glucosidase from Saccharomyces cerevisiae (Saccharomyces cerevisiae, UniProt P53341); test: α-glucosidase inhibition assay, spectrophotometric method; assay type: biochemical; conditions: pure caffeoylquinic acids (CQA); acarbose reference; read-out: Inhibitory activity against enzyme as IC50 α-Glucosidase
T2 construct: purchased Sigma-Aldrich (St. Louis, MO, USA) G5003
Procedure: The α-glucosidase inhibition assay was performed using spectrophotometric method (Olennikov et al., [2017b]). α-Glucosidase from Saccharomyces cerevisiae was dissolved in phosphate buffer (pH 6.8) containing bovine serum albumin (2 mg/mL) up to 0.5 U/mL concentration. Solution (10 μL) of sample in DMSO–phosphate buffer, pH 6.8 (1:9) at varying concentrations (10, 100, 250, 500, and 1,000 μg/mL) was premixed with 490 μL of phosphate buffer (pH 6.8) and 250 μL 5 mM p-nitrophenyl α-D-glucopyranoside. After preincubating at for 5 min, 250 μL α-glucosidase (0.5 U/mL) was added and incubated at for 15 min. The reaction was terminated by the addition of 2,000 μL Na2CO3 (200 mM). Absorbance was measured at 400 nm. […] The ability to inhibit α-glucosidase was calculated using the following equation: […]
as §1

T2 sequence (P53341 whole entry): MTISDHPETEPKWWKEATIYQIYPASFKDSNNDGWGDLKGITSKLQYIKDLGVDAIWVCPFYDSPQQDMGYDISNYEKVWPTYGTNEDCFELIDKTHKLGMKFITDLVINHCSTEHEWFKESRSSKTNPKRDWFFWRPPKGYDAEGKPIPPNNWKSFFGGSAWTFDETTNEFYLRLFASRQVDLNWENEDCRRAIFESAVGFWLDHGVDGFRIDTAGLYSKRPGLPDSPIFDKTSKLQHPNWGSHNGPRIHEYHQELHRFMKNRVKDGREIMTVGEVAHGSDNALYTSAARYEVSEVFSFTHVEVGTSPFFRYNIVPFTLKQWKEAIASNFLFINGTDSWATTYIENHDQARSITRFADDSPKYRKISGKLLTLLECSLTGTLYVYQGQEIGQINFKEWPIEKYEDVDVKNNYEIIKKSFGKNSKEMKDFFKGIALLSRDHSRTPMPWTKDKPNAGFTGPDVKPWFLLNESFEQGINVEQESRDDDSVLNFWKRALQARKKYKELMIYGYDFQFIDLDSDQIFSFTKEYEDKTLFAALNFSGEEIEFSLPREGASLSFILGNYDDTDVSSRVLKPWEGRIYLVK

Row | SMILES | IC50 [1] | IC50 [2]
1 | O=C(/C=C/c1ccc(O)c(O)c1)OC1CC(OC(=O)/C=C/c2ccc(O)c(O)c2)(C(=O)O)CC(O)C1O (stereo not drawn) [1,3-Di-O-CQA, 1,3-Di-O-caffeoylquinic acid] | 101 ± 2.81 µM | 984 ± 28.5 µM
2 | O=C(C=Cc1ccc(O)c(O)c1)OC1CC(OC(=O)C=Cc2ccc(O)c(O)c2)(C(=O)O)CC(O)C1O (stereo not drawn) [1,5-Di-O-CQA, 1,5-Di-O-caffeoylquinic acid] | 77.4 ± 2.24 µM | 754 ± 23.4 µM
3 | O=C(/C=C/c1ccc(O)c(O)c1)OC1[C@H](OC(=O)/C=C/c2ccc(O)c(O)c2)CC(O)(C(=O)O)C[C@H]1OC(=O)/C=C/c1ccc(O)c(O)c1 (stereo partly drawn) [3,4,5-Tri-O-CQA] | 40.6 ± 1.05 µM | 61.1 ± 1.77 µM
4 | O=C(/C=C/c1ccc(O)c(O)c1)OC1CC(O)(C(=O)O)CC(O)C1OC(=O)/C=C/c1ccc(O)c(O)c1 (stereo not drawn) [3,4-Di-O-CQA, 3,4-Di-O-caffeoylquinic acid] | 67.2 ± 2.01 µM | 210 ± 6.5 µM
5 | O=C(/C=C/c1ccc(O)c(O)c1)OC1CC(O)(C(=O)O)CC(OC(=O)/C=C/c2ccc(O)c(O)c2)C1O (stereo not drawn) [3,5-Di-O-CQA, 3,5-Di-O-caffeoylquinic acid] | 51.3 ± 1.64 µM | 184 ± 5.34 µM
6 | O=C(/C=C/c1ccc(O)c(O)c1)O[C@@H]1[C@H](O)C[C@@](O)(C(=O)O)C[C@H]1OC(=O)/C=C/c1ccc(O)c(O)c1 [4,5-Di-O-CQA, 4,5-Di-O-caffeoylquinic acid] | 42.3 ± 1.18 µM | 62.1 ± 1.49 µM
7 | O=C(/C=C/c1ccc(O)c(O)c1)OC1(C(=O)O)C[C@@H](O)C(O)[C@H](O)C1 (stereo partly drawn) [Compound 1-O-CQA] | 172 ± 5.34 µM | 1240 ± 42.1 µM
8 | O=C(/C=C/c1ccc(O)c(O)c1)O[C@@H]1C[C@](O)(C(=O)O)C[C@@H](O)[C@H]1O [Compound 3-O-CQA, 3-O-caffeoylquinic acid] | 170 ± 4.41 µM | –
9 | O=C(/C=C/c1ccc(O)c(O)c1)O[C@H]1[C@H](O)C[C@](O)(C(=O)O)C[C@H]1O [Compound 4-O-CQA, 4-O-Caffeoylquinic acid] | 110 ± 3.39 µM | 1030 ± 40 µM
10 | O=C(/C=C/c1ccc(O)c(O)c1)O[C@@H]1C[C@](O)(C(=O)O)C[C@@H](O)[C@H]1O [Compound 5-O-CQA, 5-O-Caffeoylquinic acid] | 84.9 ± 2.37 µM | –
